According to PubChem BioAssay (NCI):
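Following 48 hours of exposure in 96-well plates, responses at five concentrations were used to interpolate endpoints linearly. GI50 marks 50% less growth. TGI: total growth inhibition.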

Key:
Assay in all cases: NCI tumour cell line growth inhibition, 48 h
[1] = test system: M14 melanoma
[2] = test system: NCI-H460 lung
[3] = test system: UO-31 renal
[4] = test system: NCI-H23 lung
[5] = test system: NCI-H226 lung
[6] = test system: UACC-257 melanoma
[7] = test system: MALME-3M melanoma
[8] = test system: SK-OV-3 ovarian
[9] = test system: MDA-MB-231 breast
[10] = test system: DU-145 prostate

SMILES | TGI [1] [µM] | TGI [2] [µM] | TGI [3] [µM] | TGI [4] [µM] | TGI [5] [µM] | TGI [6] [µM] | TGI [7] [µM] | TGI [8] [µM] | GI50 [1] [µM] | GI50 [2] [µM] | GI50 [3] [µM] | GI50 [9] [µM] | TGI [9] [µM] | GI50 [10] [µM] | TGI [10] [µM] | GI50 [4] [nM] | GI50 [5] [µM] | GI50 [7] [µM] | GI50 [8] [µM] | GI50 [6] [µM]
COc1ccc(CCc2cc(OC)cc(OC)c2)cc1 | > 100 | > 100 | > 100 | > 100 | > 100 | > 100 | > 83.7 | > 100 |  |  |  |  |  |  |  |  |  |  |  | 
COC(=O)COc1ccc(/C=C2/N=C(c3ccccc3)N(c3c(C)n(C)n(-c4ccccc4)c3=O)C2=O)cc1 | > 100 | > 100 | 32.3 | > 100 | 63.5 |  | 40.6 | 37.9 | 32.5 | 26 | 17 | 21.8 | 45.1 | 16.6 | 30.2 | 57500 | 25.3 | 19.7 | 17.3 | 
c1ccc2c(c1)oc1ccc3nsnc3c12 | > 100 | > 10 | > 100 | > 100 | > 100 | > 100 | > 100 | > 100 |  |  |  |  |  |  |  |  |  |  |  | 
CC(=O)OCC(=O)[C@@]12OC(C)(C)O[C@@H]1C[C@H]1[C@@H]3CC(C=O)=C4C=C(OCCCl)CC[C@]4(C)[C@@]3(F)[C@@H](O)C[C@@]12C | 61.7 | 88.4 | > 100 | 42.2 | 64.8 | 80.6 | 70.3 | > 100 |  |  |  |  |  |  |  |  |  |  |  | 
COc1cc2c(cc1OC)C(=O)/C(=C/c1cc(-c3ccc4c(c3)OCO4)n[nH]1)C2 | 3.4 | 3.79 | 2.67 | 3.91 |  | 3.13 | 3.6 | 7.16 | 1.82 | 1.68 | 1.29 | 1.66 | 3.2 | 1.45 | 2.86 | 1870 |  | 1.74 | 2.89 | 1.71
CC(=O)[O-].[Mn+3].[O-]c1ccccc1C=NCCNCCN=Cc1ccccc1[O-] | > 100 | > 100 | > 100 | > 100 | > 100 | > 100 | > 100 | > 100 | > 100 | > 100 | > 100 |  |  |  |  | > 100000 | > 100 | 58.1 | > 100 | > 100
Cc1c(NC(=S)NC(=O)c2ccc([N+](=O)[O-])cc2)c(=O)n(-c2ccccc2)n1C | > 100 | > 100 | > 100 | > 100 | > 100 | > 100 | > 100 | > 100 |  |  |  |  |  |  |  |  |  |  |  | 
CCOC(=O)CCn1ncc(Cl)c(Cl)c1=O | 14.5 | 30.3 | 29.3 | 4.66 | 25.3 | 26.5 | 34.4 | 42.5 |  |  |  |  |  |  |  |  |  |  |  | 
C1CC[N-]CC1.CC(=N\O)/C(C)=N/O.CC(=N\O)/C(C)=N/O.OC1[CH-]CCCC1.[Co+2] | > 100 | > 100 | > 100 |  | > 100 | > 100 | 40.8 | > 100 | 52.8 | 30.8 | > 100 | > 100 | > 100 | 69.1 | > 100 |  | > 100 | 18 | > 100 | 29.5
CCCCCC[C@H](C)Nc1nc2ccccc2c2occc12 | 20.8 | > 100 | 19.2 | 7.23 |  | 16.3 |  | 36.2 | 7.88 | > 100 | 4.55 | 10.6 | 24 | 3.34 | 14 | 576 |  |  | 16.5 | 3.24
CC1=NN(C(=O)c2ccc(Cl)cc2)C(=O)/C1=C/c1ccccc1O | > 100 | > 100 | > 100 | > 100 |  | > 100 | > 100 | > 100 |  |  |  |  |  |  |  |  |  |  |  | 
COc1ncnc(S(=O)(=O)c2ccc(N=C3C(=O)N(CN4CCN(c5cc6c(cc5F)c(=O)c(C(=O)O)cn6C5CC5)CC4)c4ccc(Cl)cc43)cc2)c1OC | > 50 | > 50 | > 50 | > 50 | > 50 | > 50 |  |  | > 50 | 37.4 | 47.2 | 28.5 | > 50 | > 50 | > 50 | > 50000 | 38.9 |  |  | 46.4
CCCCCCCCNCCC[C@@H](C)[C@H]1CC[C@H]2[C@@H]3[C@H](OCCCN)C[C@H]4C[C@H](OCCCN)CC[C@]4(C)[C@H]3C[C@H](OCCCN)[C@]12C | 4.87 | > 19.8 | 3.72 | 5.4 | 23.6 | 8.64 |  | 21.9 | 1.64 |  | 1.49 | 0.983 | 7.11 | 1.14 | 2.35 | 1810 | 5.21 |  | 4.72 | 2.89
C[C@]12CC[C@H](O)CC1=CC[C@@H]1C2CC[C@]2(C)Nc3c(cnn3-c3ccccc3)CC12 (stereo partly drawn) | 30.9 | 10.8 | 25.3 | 63 | 56.1 | 15 | 36 | 20.7 |  |  |  |  |  |  |  |  |  |  |  | 
Cn1c(-c2ccc(/C=N/NC(=S)N/N=C/c3ccc(-c4c[n+]5ccsc5n4C)cc3)cc2)c[n+]2ccsc12 | > 100 | > 100 | > 100 |  |  | > 100 |  | > 100 |  |  |  |  | > 100 |  |  |  |  |  |  | 
COc1cc(C)c(C2NC(=O)c3ccccc3N2)cc1C (stereo not drawn) | 8.54 | 26.5 | > 100 | > 70.2 | 16.5 | > 100 | > 100 |  |  |  |  |  | > 85.7 |  | 11.6 |  |  |  |  | 
COC(=O)c1c2c(cc3c1CC1(Cc4cc5c(c(C(C)=O)c4C1)CCC5)C3)CCC2 (stereo not drawn) | > 100 | > 100 | > 100 | > 100 |  | > 100 | > 100 |  |  |  |  |  |  |  |  |  |  |  |  | 
CC(C)(C)C(=CS(=O)/N=C/c1ccccc1)C(C)(C)C (stereo not drawn) | > 100 | 73.2 | 95.7 | > 100 | > 100 | > 100 | 75.9 | 69.8 |  |  |  |  |  |  |  |  |  |  |  | 
